Several values for one entry are separate records, joined by “and”; a condition that tells them apart may be missing. Equal values may be shown once. Activity calls are given as the source filed them. Rule for the calls: active = viability on the fitted dose curve at most 10% of control; inactive = the rest.
System: SW 1271 complex tumor spheroid viability
Assay: Anticancer human tumor SW 1271 cell line growth inhibition;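 for IC50: spheroids exposed to agents for seven days before readout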;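 for viability, T/C: spheroids exposed to agents for seven days before readout; percent of DMSO vehicle control luminescence so 100% = vehicle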
Details: for viability, T/C: stronger effect = lower value
How it was run: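 Complex tumor spheroids combined malignant cells with endothelial cells and mesenchymal stem cells. DNA-damaging drugs and DNA repair inhibitors were tested alone and in combination, at half-log dilutions down from clinical Cmax (top 10 microM if Cmax unknown), 0.25% DMSO final.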

[1] = curve of first compound, second compound 1 µM
[2] = curve of first compound, second compound 3.16 µM
[3] = curve of first compound, second compound 10 µM
[4] = curve of first compound, second compound 31.6 µM
[5] = curve of first compound, second compound 100 µM
[6] = second compound 1 µM, first compound 0.00949 µM
[7] = second compound 1 µM, first compound 0.03 µM
[8] = second compound 1 µM, first compound 0.0949 µM
[9] = second compound 1 µM, first compound 0.3 µM
[10] = second compound 1 µM, first compound 0.949 µM
[11] = second compound 1 µM, first compound 3 µM
[12] = second compound 3.16 µM, first compound 0.00949 µM
[13] = second compound 3.16 µM, first compound 0.03 µM
[14] = second compound 3.16 µM, first compound 0.0949 µM
[15] = second compound 3.16 µM, first compound 0.3 µM
[16] = second compound 3.16 µM, first compound 0.949 µM
[17] = second compound 3.16 µM, first compound 3 µM
[18] = second compound 10 µM, first compound 0.00949 µM
[19] = second compound 10 µM, first compound 0.03 µM
[20] = second compound 10 µM, first compound 0.0949 µM
[21] = second compound 10 µM, first compound 0.3 µM
[22] = second compound 10 µM, first compound 0.949 µM
[23] = second compound 10 µM, first compound 3 µM
[24] = second compound 31.6 µM, first compound 0.00949 µM
[25] = second compound 31.6 µM, first compound 0.03 µM
[26] = second compound 31.6 µM, first compound 0.0949 µM
[27] = second compound 31.6 µM, first compound 0.3 µM
[28] = second compound 31.6 µM, first compound 0.949 µM
[29] = second compound 31.6 µM, first compound 3 µM
[30] = second compound 100 µM, first compound 0.00949 µM
[31] = second compound 100 µM, first compound 0.03 µM
[32] = second compound 100 µM, first compound 0.0949 µM
[33] = second compound 100 µM, first compound 0.3 µM
[34] = second compound 100 µM, first compound 0.949 µM
[35] = second compound 100 µM, first compound 3 µM

Cn1ncnc1[C@H]1c2n[nH]c(=O)c3cc(F)cc(c23)N[C@@H]1c1ccc(F)cc1 + Cn1nnc2c(C(N)=O)ncn2c1=O was tested, and the IC50 [1] was 9.72 nM, the IC50 [2] was under 9.49 nM and the IC50 [3] was under 9.49 nM. For the same molecule, the IC50 [4] was under 9.49 nM, the IC50 [5] was under 9.49 nM and the viability, T/C [6] was 50.5%. It also gave a viability, T/C [7] of 28.1%, a viability, T/C [8] of 23.4% and a viability, T/C [9] of 26.2%. For the same molecule, the viability, T/C [10] was 25.8%, the viability, T/C [11] was 20.7% and the viability, T/C [12] was 41.6%. It also gave a viability, T/C [13] of 25.2%, a viability, T/C [14] of 29.2% and a viability, T/C [15] of 22.1%. The viability, T/C [16] was 28.2%, the viability, T/C [17] was 22% and the viability, T/C [18] was 32.9%. The viability, T/C [19] was 25.5%, the viability, T/C [20] was 25.6% and the viability, T/C [21] was 28.6%. For the same molecule, the viability, T/C [22] was 29.5%, the viability, T/C [23] was 20.1% and the viability, T/C [24] was 27.1%. The viability, T/C [25] was 27.1%, the viability, T/C [26] was 29.3% and the viability, T/C [27] was 28.5%. The viability, T/C [28] was 30.5%, the viability, T/C [29] was 22% and the viability, T/C [30] was 29.8%. The viability, T/C [31] was 29.9%, the viability, T/C [32] was 32.1% and the viability, T/C [33] was 32.8%. For the same molecule, the viability, T/C [34] was 28.7% and the viability, T/C [35] was 19.9%.
For COc1ccc([C@@H](O)c2cc(-c3ncnc4cc(N5CCOCC5)ccc34)c(F)cc2Cl)nn1, the viability, T/C (compound 0.0316 µM) was 92.9% and 91.6% and 101%, the viability, T/C (compound 0.1 µM) was 93.1% and 83% and 92.6% and the viability, T/C (compound 0.316 µM) was 92.8% and 78.7% and 83.9%. The outcome (compound 1 µM) was “inactive”, the viability, T/C (compound 1 µM) was 77.2% and 72.9% and the viability, T/C (compound 3.16 µM) was 44.9% and 38.3% and 44%. For the same molecule, the viability, T/C (compound 10 µM) was 8.13% and 13.3% and 6.11% and the IC50 (curve of compound) was 2630 nM and 1790 nM and 2520 nM.
Molecule Cc1cc(C)c(CNC(=O)c2cc(-c3ccc(CN4CCOCC4)cc3)cc3c2cnn3C2CCCC2)c(=O)[nH]1 + CC[C@@]1(O)C(=O)OCc2c1cc1n(c2=O)Cc2cc3c(CN(C)C)c(O)ccc3nc2-1 has an IC50 (curve of first compound, second compound 0.003 µM) of 2120 nM, an IC50 (curve of first compound, second compound 0.00949 µM) of 32.9 nM and an IC50 (curve of first compound, second compound 0.03 µM) of under 31.6 nM. It also gave an IC50 (curve of first compound, second compound 0.0949 µM) of under 31.6 nM, an IC50 (curve of first compound, second compound 0.3 µM) of under 31.6 nM and a viability, T/C (second compound 0.003 µM, first compound 0.0316 µM) of 83.2%. It also gave a viability, T/C (second compound 0.003 µM, first compound 0.1 µM) of 84.7%, a viability, T/C (second compound 0.003 µM, first compound 0.316 µM) of 70.6% and a viability, T/C (second compound 0.003 µM, first compound 1 µM) of 59.8%. For the same molecule, the viability, T/C (second compound 0.003 µM, first compound 3.16 µM) was 45.5%, the viability, T/C (second compound 0.003 µM, first compound 10 µM) was 34.9% and the viability, T/C (second compound 0.00949 µM, first compound 0.0316 µM) was 51.3%. The viability, T/C (second compound 0.00949 µM, first compound 0.1 µM) was 38.2%, the viability, T/C (second compound 0.00949 µM, first compound 0.316 µM) was 32.5% and the viability, T/C (second compound 0.00949 µM, first compound 1 µM) was 26.9%. For the same molecule, the viability, T/C (second compound 0.00949 µM, first compound 3.16 µM) was 20.4%, the viability, T/C (second compound 0.00949 µM, first compound 10 µM) was 16.3% and the viability, T/C (second compound 0.03 µM, first compound 0.0316 µM) was 28.2%. The viability, T/C (second compound 0.03 µM, first compound 0.1 µM) was 26.4%, the viability, T/C (second compound 0.03 µM, first compound 0.316 µM) was 24.4% and the viability, T/C (second compound 0.03 µM, first compound 1 µM) was 27%. For the same molecule, the viability, T/C (second compound 0.03 µM, first compound 3.16 µM) was 24.9%, the viability, T/C (second compound 0.03 µM, first compound 10 µM) was 22.4% and the viability, T/C (second compound 0.0949 µM, first compound 0.0316 µM) was 30.7%. For the same molecule, the viability, T/C (second compound 0.0949 µM, first compound 0.1 µM) was 27%, the viability, T/C (second compound 0.0949 µM, first compound 0.316 µM) was 27.7% and the viability, T/C (second compound 0.0949 µM, first compound 1 µM) was 25.6%. The viability, T/C (second compound 0.0949 µM, first compound 3.16 µM) was 23.5%, the viability, T/C (second compound 0.0949 µM, first compound 10 µM) was 22.6% and the viability, T/C (second compound 0.3 µM, first compound 0.0316 µM) was 15.7%. The viability, T/C (second compound 0.3 µM, first compound 0.1 µM) was 12.8%, the viability, T/C (second compound 0.3 µM, first compound 0.316 µM) was 11% and the viability, T/C (second compound 0.3 µM, first compound 1 µM) was 9.77%. For the same molecule, the viability, T/C (second compound 0.3 µM, first compound 3.16 µM) was 6.12% and the viability, T/C (second compound 0.3 µM, first compound 10 µM) was 4.56%.
With CNCc1ccc(-c2cc(-c3nc(-c4ccc(S(=O)(=O)C(C)C)cc4)cnc3N)on2)cc1 + Cn1nnc2c(C(N)=O)ncn2c1=O the IC50 [1] was 213 nM, the IC50 [2] was 170 nM and the IC50 [3] was 185 nM. For the same molecule, the IC50 [4] was 174 nM, the IC50 [5] was 52.4 nM and the viability, T/C [6] was 105%. It also gave a viability, T/C [7] of 102%, a viability, T/C [8] of 98.8% and a viability, T/C [9] of 29.5%. It also gave a viability, T/C [10] of 7.14%, a viability, T/C [11] of 0.1% and a viability, T/C [12] of 109%. For the same molecule, the viability, T/C [13] was 106%, the outcome [14] was “inactive” and the viability, T/C [15] was 23.8%. It also gave a viability, T/C [16] of 7.34%, a viability, T/C [17] of 0.12% and a viability, T/C [18] of 99.1%. It also gave a viability, T/C [19] of 105%, a viability, T/C [20] of 89.7% and a viability, T/C [21] of 20.8%. For the same molecule, the viability, T/C [22] was 5.82%, the viability, T/C [23] was 0.11% and the viability, T/C [24] was 115%. The viability, T/C [25] was 82.3%, the viability, T/C [26] was 75.5% and the viability, T/C [27] was 17.5%. For the same molecule, the viability, T/C [28] was 37.5%, the viability, T/C [29] was 0.15% and the viability, T/C [30] was 93.7%. It also gave a viability, T/C [31] of 69.8%, a viability, T/C [32] of 29.5% and a viability, T/C [33] of 9.36%. The viability, T/C [34] was 29.7% and the viability, T/C [35] was 0.18%.
In the case of CC[C@@]1(O)C(=O)OCc2c1cc1n(c2=O)Cc2cc3c(CN(C)C)c(O)ccc3nc2-1, the viability, T/C (compound 0.003 µM) is reported as 88.3% [middle of 10 runs], the viability, T/C (compound 0.03 µM) is reported as 28.2% [middle of 10 runs] and the viability, T/C (compound 0.0949 µM) is reported as 27.2% [middle of 10 runs]. For the same molecule, the viability, T/C (compound 0.3 µM) was 16.7% [middle of 10 runs], the IC50 (compound alone, run of 11/07/2019) was 8.96 nM [middle of 5 runs] and the IC50 (compound alone, run of 12/16/2019) was 11.7 nM [middle of 5 runs].
